This passage reports IC50 results from US12617773B2, “Azetidin-3-ylmethanol derivatives as CCR6 receptor modulators” (Idorsia Pharmaceuticals Ltd, priority 2020, dated 2026).

The target in the experiment is T1, human CCR6 (Homo sapiens, UniProt P51684).
T1 construct: expressed in transfected cells; host or cells: HEK-293
T1 sequence (P51684 1-374): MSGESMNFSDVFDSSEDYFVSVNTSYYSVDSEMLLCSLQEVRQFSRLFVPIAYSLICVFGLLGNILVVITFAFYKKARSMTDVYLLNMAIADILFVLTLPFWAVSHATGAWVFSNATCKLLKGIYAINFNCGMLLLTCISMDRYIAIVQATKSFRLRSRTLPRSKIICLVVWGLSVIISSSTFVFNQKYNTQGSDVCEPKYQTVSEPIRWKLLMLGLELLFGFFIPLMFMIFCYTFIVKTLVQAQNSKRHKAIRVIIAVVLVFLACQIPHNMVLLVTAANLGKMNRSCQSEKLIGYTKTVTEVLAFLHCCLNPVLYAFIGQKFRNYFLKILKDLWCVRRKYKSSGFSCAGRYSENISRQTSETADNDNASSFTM
In words: FLIPR assay (inhibition of CCL20-induced calcium signal). Format: cell-based. As to conditions: HEK-293 cells expressing human CCR6; mean values where determined several times; read-out: FLIPR IC50. In outline:
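IC50 values come from baseline-corrected peak calcium fluorescence after agonist. The agonist was CCL20 at 10 nM final, added to engineered human CCR6 HEK-293 cells following a 30-min, room-temperature, dark preincubation with serially diluted compound. Readings were taken in a fluorometric imaging plate reader.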
On to `CC(C)c1ccc([C@](O)(c2cncc(C#CC(C)(O)c3n[nH]c4ccccc34)c2)C2(C)CN(C)C2)cc1` (stereo partly shown) [Example 613], for which the IC50 amounted to 0.0111 µM.

Turning to `CC(C)c1ccc([C@](O)(c2cncc(C#CC(C)(O)c3nn(C)c4ccccc34)c2)C2(C)CN(C)C2)cc1` (stereo partly shown) [Example 614], the IC50 came to 0.0126 µM.

On to `Cc1nccc(C(C)(O)C#Cc2cncc([C@@](O)(c3ccc(C(C)C)cc3)C3(C)CN(C)C3)c2)n1` (stereo partly shown) [Example 616], for which the IC50 was determined as 0.102 µM.

With `Cc1cnc(C(C)(O)C#Cc2cncc([C@@](O)(c3ccc(C(C)C)cc3)C3(C)CN(C)C3)c2)cn1` (stereo partly shown) [Example 617], the IC50 came out at 0.0535 µM.

For `Cc1ncc(C(C)(O)C#Cc2cncc([C@@](O)(c3ccc(C(C)C)cc3)C3(C)CN(C)C3)c2)s1` (stereo partly shown) [Example 618], the IC50 was determined as 0.0233 µM.

In the case of `CC(C)c1ccc([C@](O)(c2cncc(C#CC(C)(O)c3cc(C4CC4)ncn3)c2)C2(C)CN(C)C2)cc1` (stereo partly shown) [Example 619], the IC50 amounted to 0.0688 µM.

For `CC(=O)NC(C)(C)C#Cc1cncc([C@@](O)(c2ccc(C(C)C)cc2)C2(C)CN(C)C2)c1` [Example 621], the IC50 came out at 0.235 µM.

Turning to `CC(C)c1ccc([C@](O)(c2cncc(C#CC(C)(O)c3cc(C(F)(F)F)ncn3)c2)C2(C)CN(C)C2)cc1` (stereo partly shown) [Example 632], the IC50 was found to be 0.0141 µM.

In the case of `CC(C)c1ccc([C@](O)(c2cncc(C#CC(C)(O)c3cc(C(F)F)ncn3)c2)C2(C)CN(C)C2)cc1` (stereo partly shown) [Example 633], the IC50 was 0.0425 µM.

Consider `CC(C)c1ccc([C@](O)(c2cncc(C#CC3(c4ccccn4)CC3)c2)C2(C)CN(C)C2)cc1` [Example 634], for which the IC50 was 0.0406 µM.

For the molecule `Cc1cc(C2(C#Cc3cncc([C@@](O)(c4ccc(C(C)C)cc4)C4(C)CN(C)C4)c3)CC2)ncn1` [Example 635], the IC50 is 0.0232 µM.

For `CC(=O)N1CCC(CCc2cncc([C@@](O)(c3ccc(C(C)C)cc3)C3(C)CN(C)C3)c2)CC1` [Example 636], the IC50 came out at 0.107 µM.

Regarding `CC(C)c1ccc([C@](O)(c2cncc(CCC(C)(O)C(F)(F)F)c2)C2(C)CN(C)C2)cc1` (stereo partly shown) [Example 637], the IC50 is 0.0463 µM.

For the molecule `CC(C)c1ccc([C@](O)(c2cncc(CCC(C)(C)N3CCOC3=O)c2)C2(C)CN(C)C2)cc1` [Example 638], the IC50 stood at 0.509 µM.

`CC(C)c1ccc([C@](O)(c2cncc(CCC(C)(C)N3CCCC3=O)c2)C2(C)CN(C)C2)cc1` [Example 639]: the half-inhibitory concentration (IC50) worked out at 0.0966 µM.

Regarding `CC(C)c1ccc([C@](O)(c2cncc(CCC(C)(C)N3CCN(C)C3=O)c2)C2(C)CN(C)C2)cc1` [Example 640], the IC50 was determined as 0.169 µM.

For `CC(C)c1ccc([C@](O)(c2cncc(CCC(C)(C)N3CCNC3=O)c2)C2(C)CN(C)C2)cc1` [Example 641], the IC50 worked out at 0.067 µM.

Consider `CC(=O)N1CCC[C@]1(C)CCc1cncc([C@@](O)(c2ccc(C(C)C)cc2)C2(C)CN(C)C2)c1` [Example 642], for which the IC50 was determined as 0.277 µM.

Turning to `CC(C)c1ccc([C@](O)(c2cncc(CCC(C)(O)c3n[nH]c4ccccc34)c2)C2(C)CN(C)C2)cc1` (stereo partly shown) [Example 643], the IC50 was 0.0169 µM.

As for `CC(C)c1ccc([C@](O)(c2cncc(CCC(C)(O)c3ccn(C4CC4)n3)c2)C2(C)CN(C)C2)cc1` (stereo partly shown) [Example 644], the IC50 came out at 0.147 µM.

In the case of `Cc1nccc(C(C)(O)CCc2cncc([C@@](O)(c3ccc(C(C)C)cc3)C3(C)CN(C)C3)c2)n1` (stereo partly shown) [Example 645], the IC50 was 0.11 µM.

Take `Cc1cnc(C(C)(O)CCc2cncc([C@@](O)(c3ccc(C(C)C)cc3)C3(C)CN(C)C3)c2)cn1` (stereo partly shown) [Example 646]: the IC50 amounted to 0.129 µM.

Consider `Cc1ncc(C(C)(O)CCc2cncc([C@@](O)(c3ccc(C(C)C)cc3)C3(C)CN(C)C3)c2)s1` (stereo partly shown) [Example 647], for which the IC50 was 0.0763 µM.

Take `Cc1cc(C(C)(O)C#Cc2cncc([C@@](O)(c3ccc(C(C)C)cc3)C3(C)CN(C)C3)c2)on1` (stereo partly shown) [Example 648]: the IC50 turned out to be 0.0466 µM.

Take `CC(C)c1ccc([C@](O)(c2cncc(C#CC(C)(O)c3nccn3C)c2)C2(C)CN(C)C2)cc1` (stereo partly shown) [Example 649]: the IC50 was found to be 0.185 µM.

For the molecule `Cc1ccc(C(C)(O)C#Cc2cncc([C@@](O)(c3ccc(C(C)C)cc3)C3(C)CN(C)C3)c2)s1` (stereo partly shown) [Example 650], the IC50 turned out to be 0.0159 µM.

Consider `CC(C)c1ccc([C@](O)(c2cncc(C#CC(C)(O)c3cccn3C)c2)C2(C)CN(C)C2)cc1` (stereo partly shown) [Example 651], for which the half-inhibitory concentration (IC50) turned out to be 0.0161 µM.

`Cc1cccc(C(C)(O)C#Cc2cncc([C@@](O)(c3ccc(C4(C(F)(F)F)CC4)cc3)C3(C)CN(C)C3)c2)n1` (stereo partly shown) [Example 654]: the IC50 was 0.0462 µM.

Take `Cc1cccc(C(C)(O)C#Cc2cncc([C@@](O)(c3ccc(C4(C)CC4)cc3)C3(C)CN(C)C3)c2)n1` (stereo partly shown) [Example 655]: the IC50 was determined as 0.055 µM.

With `Cc1cccc(C(C)(O)C#Cc2cncc([C@@](O)(c3ccc(C(F)(F)F)cc3)C3(C)CN(C)C3)c2)n1` (stereo partly shown) [Example 656], the IC50 was determined as 0.208 µM.

In the case of `CCc1ccc([C@](O)(c2cncc(C#CC(C)(O)c3cccc(C)n3)c2)C2(C)CN(C)C2)cc1` (stereo partly shown) [Example 657], the IC50 was determined as 0.0866 µM.

For `Cc1cccc(C(C)(O)C#Cc2cncc([C@@](O)(c3ccc(C(C)(C)C)cc3)C3(C)CN(C)C3)c2)n1` (stereo partly shown) [Example 658], the IC50 turned out to be 0.0866 µM.

For `CCC1([C@](O)(c2ccc(OC(F)(F)F)cc2)c2cncc(C#CC(C)(O)c3cccc(C)n3)c2)CN(C)C1` (stereo partly shown) [Example 659], the IC50 is 0.344 µM.

Turning to `Cc1cccc(C(C)(O)C#Cc2cncc([C@@](O)(c3ccc(CC(F)(F)F)cc3)C3(C)CN(C)C3)c2)n1` (stereo partly shown) [Example 660], the IC50 was determined as 0.0824 µM.

Regarding `Cc1cccc(C(C)(O)C#Cc2cncc([C@@](O)(c3ccc(C(C)C)cc3)C3(F)CN(C)C3)c2)n1` (stereo partly shown) [Example 661], the IC50 was found to be 0.0543 µM.

As for `CC(=O)N1CCC(C#Cc2cc([C@@](O)(c3ccc(C(C)C)cc3)C3(C)CN(C)C3)cnn2)CC1` [Example 662], the IC50 is 0.331 µM.

For the molecule `CC(=O)NC(C)(C)C#Cc1cc([C@@](O)(c2ccc(C(C)C)cc2)C2(C)CN(C)C2)cnn1` [Example 663], the IC50 turned out to be 0.992 µM.

As to `CC(C)c1ccc([C@](O)(c2cnnc(C#CC(C)(C)N3CCCC3=O)c2)C2(C)CN(C)C2)cc1` [Example 664], the IC50 was 0.211 µM.

For `Cc1cccc(C(C)(O)C#Cc2cncc([C@@](O)(c3ccc(C(C)C)cc3)C3(C)CN(C(C)C)C3)c2)n1` (stereo partly shown) [Example 665], the IC50 came out at 0.0404 µM.

On to `Cc1cccc(C(C)(O)C#Cc2cncc([C@@](O)(c3ccc(C(C)C)cc3)C3(C)CN(CCO)C3)c2)n1` (stereo partly shown) [Example 667], for which the IC50 came out at 0.0524 µM.

As for `Cc1cccc(C(C)(O)C#Cc2cncc([C@@](O)(c3ccc(C(C)C)cc3)C3(C)CN(CC(F)F)C3)c2)n1` (stereo partly shown) [Example 668], the IC50 was 0.101 µM.

Turning to `CC(=O)N1CCC(COc2cncc([C@@](O)(c3ccc(C(C)C)cc3)C3(C)CN(C)C3)c2)CC1` [Example 669, 1-(4-{5-[(R)-(1,3-Dimethyl-azetidin-3-yl)-hydroxy-(4-isopropyl-phenyl)-methyl]-pyridin-3-yloxymethyl}-piperidin-1-yl)-ethanone], the IC50 was 0.0621 µM.

As to `Cc1cccc(C(C)(O)C#Cc2cncc([C@@](O)(c3ccc(C(C)C)cc3)C3(C)CN(C4CC4)C3)c2)n1` (stereo partly drawn) [Example 670, 4-{5-[(R)-(1-Cyclopropyl-3-methyl-azetidin-3-yl)-hydroxy-(4-isopropyl-phenyl)-methyl]-pyridin-3-yl}-2-(6-methyl-pyridin-2-yl)-but-3-yn-2-ol], the IC50 is 0.0428 µM.
